The values below come from ChEMBL document CHEMBL1146827, “Synthesis and evaluation as sialidase inhibitors of xylo-configured cyclohexenephosphonates carrying glycerol side-chain mimics” (Bioorg Med Chem Lett, 2004).

For orientation: IC50 means the point on the concentration scale where inhibition reaches its midpoint. Low readings indicate greater potency in that assay, high ones weaker potency in that assay.

Assay [1] is described as follows: Compound was tested for inhibitory activity against sialidase from Salmonella Typhimurium. Details: species or system Salmonella enterica subsp. enterica serovar Typhimurium.
The nature of assay [2]: Compound was tested for inhibitory activity against sialidase from Vibrio cholerae.
Assay [3] in a line: Compound was tested for inhibitory activity against sialidase from Clostridium perfringens; n.a. = not active.

The structures appear in SMILES notation. Where only a bound is given, the exact number is not on record here.

As to `C=CCO[C@@H]1CC(P(=O)(O)O)=C[C@H](O)[C@H]1NC(C)=O.CCN(CC)CC.CCN(CC)CC`, the figures for the IC50 in assay [1], in assay [2] and in assay [3] were less than 2 mM, 1.5 mM and “Not Active”, respectively.
As to `CC(=O)N[C@@H]1[C@@H](O)C=C(P(=O)(O)O)C[C@H]1OCC(O)CO.N.N` (stereo partly specified), the IC50 was more than 4 mM in assay [1] and “Not Active” in assay [3].
As for `CC(=O)N[C@@H]1[C@H](O)C=C(P(=O)(O)O)C[C@H]1OCCO.N.N`, the IC50 in assay [1] was 1.8 mM; in assay [2] it was 1.6 mM; in assay [3], “Not Active”.
For `CC(=O)N[C@H]1[C@H](O)CC(P(=O)(O)O)=C[C@@H]1O.N.N`, the IC50 in assay [1] is 1 mM; in assay [2], 1.8 mM; in assay [3], “Not Active”.
